The record followed here is patent US10065990B2, “Cyclic peptide compound, and preparation method, pharmaceutical composition and use thereof” (HANGZHOU GUANYU BIO-MEDICAL CO., LTD, priority 2013, dated 2018).

Read-outs that look alike come from different tables or passages of the source.

Experiment [1] concerns the target T1, HDAC8 (Homo sapiens, UniProt Q9BY41).
T1 sequence (Q9BY41 1-377): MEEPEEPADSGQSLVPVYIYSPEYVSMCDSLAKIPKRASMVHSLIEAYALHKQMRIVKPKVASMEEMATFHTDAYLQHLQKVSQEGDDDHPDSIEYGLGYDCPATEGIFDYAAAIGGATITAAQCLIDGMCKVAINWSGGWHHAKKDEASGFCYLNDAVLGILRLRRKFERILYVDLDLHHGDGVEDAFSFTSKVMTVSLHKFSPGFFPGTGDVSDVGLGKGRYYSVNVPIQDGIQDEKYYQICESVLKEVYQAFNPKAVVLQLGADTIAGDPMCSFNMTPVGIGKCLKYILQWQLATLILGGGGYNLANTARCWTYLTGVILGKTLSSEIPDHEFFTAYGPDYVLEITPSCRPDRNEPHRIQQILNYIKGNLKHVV
The experiment in a line: HDAC biochemical activity measurement (fluorescent substrate deacetylation). To be noted: 37° C. 30 minutes.

Experiment [2] has as its system BGC-823 (human gastric cancer cells). The experiment in a line: MTT cancer cell growth inhibition. The settings on record: Homo sapiens, BGC-823, 72 h, MTT. Format: cell-based. The gist of the method:
(§1)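 Cells seeded at 1500/well in DMEM or RPMI 1640 with 10% FBS, incubated overnight, then exposed to compound at 10^−5 to 10^−10 M final in triplicate for 72 h at 37° C, 5% CO2. MTT added for 4 h, formazan dissolved in DMSO, absorbance read at 570 nm; GI50 derived from viability.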

Experiment [3] concerns KBM-5 (human chronic myelogenous leukemia). In words: MTT cancer cell growth inhibition. It is filed as cell-based. The settings on record: Homo sapiens, KBM5, 72 h, MTT, 72 hours incubation, KBM-5 cells; read-out: GI50 KBM-5. The gist of the method:
as §1

Experiment [4] relates to HCC827 (human non-small cell lung cancer cells). In words: MTT cancer cell growth inhibition. The settings on record: Homo sapiens, HCC827, 72 h, MTT, 72 hours incubation, HCC827 cells; read-out: GI50 HCC827. It is filed as cell-based. The gist of the method: as §1
Experiment [5] has as its system H1975 (non-small cell lung adenocarcinoma). The experiment in a line: MTT cancer cell growth inhibition. It is filed as cell-based. The settings on record: Homo sapiens, NCI-H1975, 72 h, MTT, 72 hours incubation, H1975 cells; read-out: GI50 H1975. The gist of the method: as §1
Experiment [6] relates to HT1080 (human fibrosarcoma cells). In words: MTT cancer cell growth inhibition. It is filed as cell-based. To be noted: Homo sapiens, HT-1080, 72 h, MTT. The gist of the method:
as §1

Experiment [7] relates to U937 (human leukemia cells). In words: MTT cancer cell growth inhibition. It is filed as cell-based. The settings on record: Homo sapiens, U-937, 72 h, MTT. The gist of the method: as §1
For experiment [8], the system named is Hela (human cervical cancer cells). The experiment in a line: MTT cancer cell growth inhibition. Format: cell-based. The settings on record: Homo sapiens, HeLa, 72 h, MTT. The gist of the method: as §1
The subject of experiment [9] is Bel-7402 (human hepatoma cells). The experiment in a line: MTT cancer cell growth inhibition. Format: cell-based. To be noted: Homo sapiens, Bel-7402, 72 h, MTT, 72 hours incubation, Bel-7402 cells; read-out: GI50 Bel-7402. The method, boiled down: as §1
For experiment [10], the system named is K562 (human leukemia cells). In words: MTT cancer cell growth inhibition. The settings on record: Homo sapiens, K562, 72 h, MTT, 72 hours incubation, K562 cells; read-out: GI50 K562. Format: cell-based. The gist of the method:
as §1

Experiment [11] has as its system N-87 (human gastric cancer cells). In words: MTT cancer cell growth inhibition. It is filed as cell-based. To be noted: Homo sapiens, 72 h, MTT, 72 hours incubation, N-87 cells; read-out: GI50 N-87. The gist of the method:
as §1

Experiment [12] concerns DU145 (human prostate cancer cells). In words: MTT cancer cell growth inhibition. It is filed as cell-based. To be noted: Homo sapiens, DU-145, 72 h, MTT. The method, boiled down:
as §1

Experiment [13] concerns the target HDAC3 (Homo sapiens, UniProt O15379). The experiment in a line: HDAC biochemical activity measurement (fluorescent substrate deacetylation).
Where [14] appears, read: 72 hours incubation, read-out: GI50 BG.
Where [15] appears, read: 72 hours incubation, read-out: GI50 HT1.
[16] abbreviates: 72 hours incubation, read-out: GI50 U93.
Setting [17] is: 72 hours incubation, read-out: GI50 Hela.
Where [18] appears, read: 72 hours incubation, read-out: GI50 Du1.
The mark [19] stands for this setting: read-out: IC50 HDAC3, HDAC3, 37° C. 30 minutes.
Where [20] appears, read: BGC-823 cells, 72 hours incubation, read-out: GI50 BG.
[21] abbreviates: HT1080 cells, 72 hours incubation, read-out: GI50 HT1.
Setting [22] is: U937 cells, 72 hours incubation, read-out: GI50 U93.
[23] abbreviates: Hela cells, 72 hours incubation, read-out: GI50 Hela.
[24] abbreviates: DU145 cells, 72 hours incubation, read-out: GI50 Du1.

Chain of HDAC3 (O15379 whole entry, species assumed): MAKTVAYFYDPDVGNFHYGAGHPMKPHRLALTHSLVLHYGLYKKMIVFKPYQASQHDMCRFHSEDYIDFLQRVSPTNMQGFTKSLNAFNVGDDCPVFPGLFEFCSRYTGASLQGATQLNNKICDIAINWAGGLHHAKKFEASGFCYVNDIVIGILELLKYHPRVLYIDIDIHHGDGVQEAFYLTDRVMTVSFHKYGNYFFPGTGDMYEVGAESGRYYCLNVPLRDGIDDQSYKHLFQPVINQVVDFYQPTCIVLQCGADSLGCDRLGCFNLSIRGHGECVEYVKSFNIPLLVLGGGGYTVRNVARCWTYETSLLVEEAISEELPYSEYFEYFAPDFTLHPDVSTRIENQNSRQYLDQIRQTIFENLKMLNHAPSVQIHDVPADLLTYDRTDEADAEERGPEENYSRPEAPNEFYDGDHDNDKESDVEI
Chain of HDAC3 (Q9Y618 395-489 partner limits assumed, species assumed): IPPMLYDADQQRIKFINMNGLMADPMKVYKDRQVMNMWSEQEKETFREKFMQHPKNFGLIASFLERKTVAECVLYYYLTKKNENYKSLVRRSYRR

For `C/C=C1\NC(=O)c2nc(ccc2F)CNC(=O)C[C@@H](/C=C/CCSC(=O)CCCCCCC)OC(=O)[C@H](C(C)C)NC1=O` [Compound 30], the figures for the half-maximal inhibitory concentration (IC50) in [1] and in experiment [13] (setting [19]) were 43 nM and 34 nM, respectively. Besides, the 50% growth inhibitory concentration (GI50) in experiment [2] (setting [14]) was 30 nM; in [3] it was 82 nM; in [4], 82 nM; in [5], 39 nM; in [6] (setting [15]) it was 80 nM; in experiment [7] (setting [16]) it was 30 nM. In addition, the 50% growth inhibitory concentration (GI50) in [8] (setting [17]) was found to be 80 nM; in experiment [9], 82 nM; in experiment [10], 38 nM; in experiment [11], 30 nM; in experiment [12] (setting [18]) it was 30 nM.
As for `C/C=C1\NC(=O)c2cc(SCCC)cc(n2)CNC(=O)C[C@@H](/C=C/CCSC(=O)CCCCCCC)OC(=O)[C@H](CC)NC1=O` [Compound 175], the half-maximal inhibitory concentration (IC50) in experiment [1] was found to be 69 nM; in experiment [13] it was 11 nM. Further, the GI50 worked out at 20 nM in experiment [2] (setting [20]); 42 nM in experiment [3]; 13 nM in [4]; 42 nM in experiment [5]; 50 nM in experiment [6] (setting [21]); 40 nM in [7] (setting [22]). For the same compound, the GI50 was 10 nM in [8] (setting [23]); 105 nM in experiment [9]; 39 nM in experiment [10]; 49 nM in [11]; 30 nM in [12] (setting [24]).
As to `C/C=C1\NC(=O)c2cc(F)cc(n2)CNC(=O)C[C@@H](/C=C/CCSC(C)=O)OC(=O)[C@H](CCCCNC(=O)OCC2c3ccccc3-c3ccccc32)NC1=O` [Compound 76], the half-maximal inhibitory concentration (IC50) is 28 nM in experiment [1] and 42 nM in [13] (setting [19]). In addition, the GI50 in experiment [2] (setting [14]) is 30 nM; in experiment [3], 94 nM; in [4] it was 72 nM; in [5], 34 nM; in [6] (setting [15]), 70 nM; in experiment [7] (setting [16]), 30 nM. The 50% growth inhibitory concentration (GI50) in experiment [8] (setting [17]) is 90 nM; in [9], 72 nM; in [10] it was 17 nM; in experiment [11] it was 32 nM; in [12] (setting [18]) it was 10 nM.
Take `C/C=C1\NC(=O)c2cccc(n2)CNC(=O)C[C@@H](/C=C/CCSC(=O)CCCCCCC)OC(=O)[C@H](CSCC)NC1=O` [Compound 242]: the IC50 was found to be 55 nM in experiment [1] and 32 nM in experiment [13]. Besides, the GI50 amounted to 10 nM in [2] (setting [20]); 14 nM in experiment [2] (72 hours, present invention, read-out: GI50 BGC823, a); 56 nM in experiment [3]; 79 nM in experiment [4]; 21 nM in experiment [5]; 30 nM in experiment [6] (setting [21]). The GI50 was found to be 330 nM in [6] (72 hours, present invention, read-out: GI50 HT1080, a); 12 nM in experiment [7] (72 hours, present invention, read-out: GI50 U937, a); 10 nM in experiment [7] (setting [22]); 80 nM in experiment [8] (setting [23]); 88 nM in [8] (72 hours, present invention, read-out: GI50 Hela, a); 88 nM in experiment [9]. In addition, the 50% growth inhibitory concentration (GI50) in experiment [10] was found to be 55 nM; in experiment [11], 31 nM; in experiment [12] (setting [24]) it was 90 nM; in [12] (72 hours, present invention, read-out: GI50 Du145, a), 91 nM.
`C/C=C1\NC(=O)c2nc(ccc2SC)CNC(=O)C[C@@H](/C=C/CCSC(=O)CCCCC)OC(=O)[C@H](C(C)C)NC1=O` [Compound 153]: the half-maximal inhibitory concentration (IC50) in experiment [1] was 28 nM; in experiment [13] it was 36 nM. In addition, the GI50 in experiment [2] (setting [20]) amounted to 20 nM; in experiment [3], 28 nM; in experiment [4], 28 nM; in experiment [5], 31 nM; in experiment [6] (setting [21]), 80 nM; in experiment [7] (setting [22]), 30 nM. Also, the GI50 in [8] (setting [23]) was 50 nM; in [9], 96 nM; in [10] it was 32 nM; in [11], 28 nM; in [12] (setting [24]), 60 nM.

A word on the IC50: it is the concentration that inhibits the measured activity by half. A word on the GI50: it is the concentration at which growth is held to half of that of the control.
